Results reported in ChEMBL document CHEMBL5576051, “Synthesis of 2,2-dimethyl-chroman-based stereochemically flexible and constrained anti-breast cancer agents” (Bioorg Med Chem Lett, 2024).
pIC50: −log10 of the molar value. Activity calls are given as the source filed them. The rule behind the calls is not given here.

What was measured:
[1] = test system: MDA-MB-231; assay: Induction of cell cycle arrest in estrogen receptor […] human MDA-MB-231 cells assessed as accumulation of cells at G2/M phase at 9.2 uM incubated for 24 hrs (reference value: 13.64%); format: functional
[2] = test system: MCF7; assay: Induction of cell cycle arrest in estrogen receptor positive human MCF7 cells assessed as accumulation of cells at S phase at 13.4 uM incubated for 24 hrs (reference value: 20.84%); format: functional
[3] = test system: MDA-MB-231; assay: Induction of apoptosis in human MDA-MB-231 cells assessed as inhibition of PARP level; format: functional, cell-based
[4] = test system: MDA-MB-231; assay: Induction of cell cycle arrest in estrogen receptor […] human MDA-MB-231 cells assessed as accumulation of cells at S phase at 9.2 uM incubated for 24 hrs (reference value: 25.49%); format: functional
[5] = test system: MCF7; assay: Induction of cell cycle arrest in estrogen receptor positive human MCF7 cells assessed as accumulation of cells at G0/G1 phase at 13.4 uM incubated for 24 hrs (reference value: 60.49%); format: functional
[6] = test system: MDA-MB-231; assay: Antiproliferative activity against estrogen receptor negative human MDA-MB-231 cells assessed as inhibition of cell viability by MTT assay; format: functional, cell-based
[7] = test system: MCF7; assay: Induction of cell cycle arrest in estrogen receptor positive human MCF7 cells assessed as accumulation of cells at G2/M phase at 13.4 uM incubated for 24 hrs (reference value: 19.32%); format: functional
[8] = test system: MDA-MB-231; assay: Induction of cell cycle arrest in estrogen receptor negative human MDA-MB-231 cells assessed as accumulation of cells at G0/G1 phase at 9.2 uM incubated for 24 hrs (reference value: 61.44%); format: functional
[9] = test system: MCF7; assay: Antiproliferative activity against estrogen receptor positive human MCF7 cells assessed as inhibition of cell viability by MTT assay; format: functional, cell-based
[10] = test system: MCF7; assay: Induction of apoptosis in human MCF7 cells assessed as inhibition of PARP level; format: functional, cell-based
[11] = test system: MCF7; assay: Induction of cell cycle arrest in estrogen receptor positive human MCF7 cells assessed as accumulation of cells at G2/M phase at 12.9 uM incubated for 24 hrs (reference value: 19.32%); format: functional
[12] = test system: MCF7; assay: Induction of cell cycle arrest in estrogen receptor positive human MCF7 cells assessed as accumulation of cells at S phase at 12.9 uM incubated for 24 hrs (reference value: 20.84%); format: functional
[13] = test system: MDA-MB-231; assay: Induction of cell cycle arrest in estrogen receptor negative human MDA-MB-231 cells assessed as accumulation of cells at G0/G1 phase at 8.8 uM incubated for 24 hrs (reference value: 61.44%); format: functional
[14] = test system: MCF7; assay: Induction of cell cycle arrest in estrogen receptor positive human MCF7 cells assessed as accumulation of cells at G0/G1 phase at 12.9 uM incubated for 24 hrs (reference value: 60.49%); format: functional
[15] = test system: MDA-MB-231; assay: Induction of cell cycle arrest in estrogen receptor […] human MDA-MB-231 cells assessed as accumulation of cells at G2/M phase at 8.8 uM incubated for 24 hrs (reference value: 13.64%); format: functional
[16] = test system: MDA-MB-231; assay: Induction of cell cycle arrest in estrogen receptor […] human MDA-MB-231 cells assessed as accumulation of cells at S phase at 8.8 uM incubated for 24 hrs (reference value: 25.49%); format: functional
[17] = test system: MDA-MB-231; assay: Induction of cell cycle arrest in estrogen receptor […] human MDA-MB-231 cells assessed as accumulation of cells at S phase at 9 uM incubated for 24 hrs (reference value: 25.49%); format: functional
[18] = test system: MCF7; assay: Induction of cell cycle arrest in estrogen receptor positive human MCF7 cells assessed as accumulation of cells at S phase at 15 uM incubated for 24 hrs (reference value: 20.84%); format: functional
[19] = test system: MDA-MB-231; assay: Induction of cell cycle arrest in estrogen receptor negative human MDA-MB-231 cells assessed as accumulation of cells at G0/G1 phase at 9 uM incubated for 24 hrs (reference value: 61.44%); format: functional
[20] = test system: MCF7; assay: Induction of cell cycle arrest in estrogen receptor positive human MCF7 cells assessed as accumulation of cells at G0/G1 phase at 15 uM incubated for 24 hrs (reference value: 60.49%); format: functional
[21] = test system: MCF7; assay: Induction of cell cycle arrest in estrogen receptor positive human MCF7 cells assessed as accumulation of cells at G2/M phase at 15 uM incubated for 24 hrs (reference value: 19.32%); format: functional
[22] = test system: MDA-MB-231; assay: Induction of cell cycle arrest in estrogen receptor […] human MDA-MB-231 cells assessed as accumulation of cells at G2/M phase at 9 uM incubated for 24 hrs (reference value: 13.64%); format: functional
[23] = test system: MCF7; assay: Induction of cell cycle arrest in estrogen receptor positive human MCF7 cells assessed as accumulation of cells at G2/M phase at 11 uM incubated for 24 hrs (reference value: 19.32%); format: functional
[24] = test system: MCF7; assay: Induction of cell cycle arrest in estrogen receptor positive human MCF7 cells assessed as accumulation of cells at S phase at 11 uM incubated for 24 hrs (reference value: 20.84%); format: functional
[25] = test system: MCF7; assay: Induction of cell cycle arrest in estrogen receptor positive human MCF7 cells assessed as accumulation of cells at G0/G1 phase at 11uM incubated for 24 hrs (reference value: 60.49%); format: functional

Row | SMILES | pIC50 [6] | pIC50 [9] | also measured
1 | COc1ccc2c(c1)OC(C)(C)CC2C(c1ccccc1)c1ccccc1OCCN1CCCCC1 (stereo not given) | 5.04 | 4.87 | Activity [1]: 12.12%; Activity [2]: 11.86%; Activity [3]: Active; Activity [4]: 13.75%; Activity [5]: 71.33%; Activity [7]: 17.14%; Activity [8]: 74.38%; Activity [10]: Active
2 | COc1ccc2c(c1)OC(C)(C)C/C2=C(\c1ccccc1)c1ccccc1OCCN(C)C | 5.06 | 4.89 | Activity [11]: 19.26%; Activity [12]: 17.85%; Activity [13]: 70.51%; Activity [14]: 63.58%; Activity [3]: Active; Activity [15]: 13.2%; Activity [16]: 16.79%; Activity [10]: Active
3 | COc1ccc2c(c1)OC(C)(C)C/C2=C(\c1ccccc1)c1ccccc1OCCN1CCCC1 | 4.89 | 4.72 | 
4 | COc1ccc2c(c1)OC(C)(C)CC2C(c1ccccc1)c1ccccc1OCCN1CCCC1 (stereo not given) | 4.70 | 4.60 | 
5 | CCN(CC)CCOc1ccccc1C(c1ccccc1)C1CC(C)(C)Oc2cc(OC)ccc21 (stereo not given) | 5.05 | 4.82 | Activity [3]: Active; Activity [17]: 13.26%; Activity [18]: 18.9%; Activity [19]: 75.26%; Activity [20]: 61.57%; Activity [21]: 20.33%; Activity [22]: 11.71%; Activity [10]: Active
6 | COc1ccc2c(c1)OC(C)(C)C/C2=C(/c1ccc(O)cc1)c1ccccc1F | 4.77 | 4.66 | 
7 | COc1ccc2c(c1)OC(C)(C)C/C2=C(\c1ccccc1)c1ccccc1OCC(C)N(C)C (stereo not given) | 5.05 | 4.96 | Activity [23]: 22.64%; Activity [3]: Active; Activity [17]: 21.11%; Activity [19]: 66.73%; Activity [24]: 20%; Activity [22]: 12.94%; Activity [25]: 58.31%; Activity [10]: Active
8 | COc1ccc2c(c1)OC(C)(C)CC2C(c1ccccc1)c1ccc(OCC(C)N(C)C)cc1 (stereo not given) | 4.95 | 4.82 | 
9 | COc1ccc2c(c1)OC(C)(C)CC2C(c1ccccc1)c1ccccc1O (stereo not given) | 4.98 | 4.87 | 
10 | COc1ccc2c(c1)OC(C)(C)C/C2=C(\c1ccccc1)c1ccccc1O | 4.92 | 4.80 | 
11 | COc1ccc2c(c1)OC(C)(C)CC2C(c1ccccc1)c1ccccc1OCCN(C)C (stereo not given) | 5.07 | 4.87 | 
12 | COc1ccc2c(c1)OC(C)(C)CC2C(c1ccccc1)c1ccc(OCCN(C)C)cc1 (stereo not given) |  |  | Activity [6]: inactive; Activity [9]: inactive
13 | COc1ccc2c(c1)OC(C)(C)CC2C(c1ccccc1)c1ccc(O)cc1 (stereo not given) | 5.02 | 4.90 | 
14 | COc1ccc2c(c1)OC(C)(C)CC2C(c1ccc(OCCN(C)C)cc1)c1ccccc1F (stereo not given) | 4.72 | 4.62 | 
15 | CCN(CC)CCOc1ccc(C(c2ccccc2)C2CC(C)(C)Oc3cc(OC)ccc32)cc1 (stereo not given) | 4.94 | 4.81 | 

Second part, led by results:

Row | pIC50 [6] | pIC50 [9] | SMILES | also measured
16 | 5.02 | 4.88 | COc1ccc2c(c1)OC(C)(C)CC2C(c1ccccc1)c1ccc(OCCN2CCCC2)cc1 (stereo not given) | 
17 | 4.96 | 4.85 | COc1ccc2c(c1)OC(C)(C)CC2C(c1ccccc1)c1ccccc1OCC(C)N(C)C (stereo not given) | 
18 | 4.92 | 4.82 | CCN(CC)CCOc1ccccc1/C(=C1/CC(C)(C)Oc2cc(OC)ccc21)c1ccccc1 | 
19 | 4.92 | 4.80 | COc1ccc2c(c1)OC(C)(C)C/C2=C(\c1ccccc1)c1ccccc1OCCN1CCCCC1 | 
20 | 5.07 | 4.88 | COc1ccc2c(c1)OC(C)(C)CC2C(c1ccccc1)c1ccc(OCCN2CCCCC2)cc1 (stereo not given) | 
21 | 5.02 | 4.90 | COc1ccc2c(c1)OC(C)(C)C/C2=C(\c1ccccc1)c1ccc(O)cc1 | 
22 | 5.00 |  | CC/C(=C(\c1ccccc1)c1ccc(OCCN(C)C)cc1)c1ccccc1 [TAMOXIFEN] | 
